Measured values as given in patent US20170296611A1, “Pharmaceutical Compositions Comprising Extracts of Sarcopoterium Spinosum, Components Thereof, and Uses Thereof” (Diabest Botanical Drugs Ltd., priority 2009, published 2017).

Legend:
Assay type in all cases: cell-based
[1] = system: L6 myoblasts; assay: [3H]2-deoxy-D-glucose uptake in L6 myoblasts; details: insulin 100 nM
Description: (§1) L6 myoblasts were grown in MEM-α containing 25 mM glucose, 10% FCS, 2 mM glutamine and 1% ampicillin. Experiments were performed on differentiated myotubes. In order to induce differentiation, myoblasts were incubated in MEM-α containing 25 mM glucose and 2% FCS for 4 days, followed by an additional 24 h incubation in a MEM-α starvation medium containing 5 mM glucose and 2% FCS. AML-12, a nontransformed hepatocyte cell line were maintained in DMEM containing 25 mM glucose, 10% FCS, 2 mM glutamine and 1% ampicillin. Differentiated adipocytes, L6 myoblasts and AML12 cells were each preincubated for 6 hours in low glucose (4.5 mM), serum-free DMEM containing 1% BSA, and then treated with either 100 nM insulin or compositions comprising different concentrations of S. spinosum extract (0.001-1% V/V). Glucose uptake was measured in triplicate samples in six-well plates using [^3H]2-deoxy-D-glucose (1 mCi/ml; American Radiolabeled Chemicals, St. Louis, Mo., USA). […] Samples were counted in the ^3H window of a Tricarb scintillation counter. […] The effect of S. spinosum compositions on glucose uptake was measured in the AML12 hepatocyte cell line, L6 skeletal myoblasts and in differentiated 3T3-L1 adipocytes, and compared to the effect of insulin. […] The uptake of [^3H]2-deoxy-D-glucose into cells was determined as described in the Materials and Methods section.

[2] = system: AML12 hepatocyte cell line; assay: [3H]2-deoxy-D-glucose uptake in hepatocytes; details: insulin 100 nM
Description: as §1

[3] = system: GSK3β ser-9 phosphorylation; assay: GSK3β phosphorylation in L6 myotubes (Western blot / ELISA); details: insulin 100 nM, 20 min
Description: L6 myoblasts were grown in MEM-α containing 25 mM glucose, 10% FCS, 2 mM glutamine and 1% ampicillin. Experiments were performed on differentiated myotubes. In order to induce differentiation, myoblasts were incubated in MEM-α containing 25 mM glucose and 2% FCS for 4 days, followed by an additional 24 h incubation in a MEM-α starvation medium containing 5 mM glucose and 2% FCS. AML-12, a nontransformed hepatocyte cell line were maintained in DMEM containing 25 mM glucose, 10% FCS, 2 mM glutamine and 1% ampicillin. […] Protein lysates were prepared using cell extraction buffer supplemented with protease and phosphatase inhibitors. The samples were homogenized and centrifuged at 14,000 rpm for 20 min. The supernatant was collected and protein concentration was measured using the Bradford method. 20 μg protein per lane was separated by SDS-polyacrylamide gel electrophoresis. Proteins were electrophoretically transferred onto nitrocellulose membranes. The membranes were blocked in 10% dry milk, incubated with the appropriate antibodies and immunodetected using the enhanced chemiluminescence method. Differentiated L6 myotubes were treated with 100 nM insulin or composition (S. spinosum extract diluted to 0.1% V/V) for 20 min. Protein lysates were prepared using cell extraction buffer. […] GSK-3β phosphorylation was measured using the ELISA detection kit. […]

[4] = system: differentiated 3T3-L1 adipocytes; assay: [3H]2-deoxy-D-glucose uptake in 3T3-L1 adipocytes; details: insulin 100 nM
Description: 3T3-L1 pre-adipocytes were cultured and differentiated as described in references 8 as well as 16, 19, 20 and 21. Briefly, cells were grown to confluence in Dulbecco's Modified Eagle's Medium (DMEM) containing 10% fetal calf serum (FCS), 2 mM glutamine and 1% ampicillin. Two days after full confluence, the cells were induced to differentiate by 3 days incubation in DMEM containing 10% FCS, 0.5 mM isobutylmethylxanthine (IBMX), 1 μM dexamethasone and 100 nM insulin. This was followed by 2 days of incubation in DMEM containing 10% FCS and 100 nM insulin. The cells were grown for an additional 5-9 days in DMEM containing 10% FCS. […] Glucose uptake was measured in triplicate samples in six-well plates using [^3H]2-deoxy-D-glucose (1 mCi/ml; American Radiolabeled Chemicals, St. Louis, Mo., USA). […] Samples were counted in the ^3H window of a Tricarb scintillation counter. […] The effect of S. spinosum compositions on glucose uptake was measured in the AML12 hepatocyte cell line, L6 skeletal myoblasts and in differentiated 3T3-L1 adipocytes, and compared to the effect of insulin. […] The uptake of [^3H]2-deoxy-D-glucose into cells was determined as described in the Materials and Methods section.

[5] = system: 3T3-L1 adipocytes; assay: Free fatty acid release (lipolysis) assay in 3T3-L1 adipocytes
Description: 3T3-L1 pre-adipocytes were cultured and differentiated as described in references 8 as well as 16, 19, 20 and 21. Briefly, cells were grown to confluence in Dulbecco's Modified Eagle's Medium (DMEM) containing 10% fetal calf serum (FCS), 2 mM glutamine and 1% ampicillin. Two days after full confluence, the cells were induced to differentiate by 3 days incubation in DMEM containing 10% FCS, 0.5 mM isobutylmethylxanthine (IBMX), 1 μM dexamethasone and 100 nM insulin. This was followed by 2 days of incubation in DMEM containing 10% FCS and 100 nM insulin. The cells were grown for an additional 5-9 days in DMEM containing 10% FCS. […] Differentiated adipocytes were preincubated for 12 hours in DMEM containing 2% fatty acid-free bovine serum albumin, in the absence of FCS. Lipolysis was stimulated by treating cells with 10 μM isoproterenol for 1 hour, in the absence or presence of insulin (100 nM) or a composition (S. spinosum extract diluted to 0.001-1% V/V). Free fatty acids (FFA) released into the culture media were measured immediately using a NEFA-C kit, according to the kit instructions. Lipolysis was induced using the adrenergic agonist isoproterenol in order to analyze the extract's effect on lipolysis, and the effect of compositions comprising S. spinosum extract on isoproterenol-induced lipolysis measured, with insulin as a positive control. Differentiated adipocytes (3T3-L1) were treated with insulin (100 nM) or a composition comprising 1% (V/V) S. spinosum extract with or without the addition of isoproterenol (10 μM) for 60 min. Free fatty acid (FFA) concentration was measured […].

Compound	increase in glucose uptake [1] [%]	increase in glucose uptake [2] [%]	increase in GSK3β ser-9 phosphorylation compared to the control [3] [fold]	increase in glucose uptake [4] [%]	isoproterenol-induced free fatty acid release ([5]; isoproterenol 10 μM, 60 min, insulin 100 nM) [mM FFA/mg protein]	free fatty acid release ([5]; unstimulated adipocytes (no isoproterenol))	free fatty acid release (lipolysis) ([5]; isoproterenol 10 μM for one hour alone) [mM FFA/mg protein]
insulin	146±11.26	160±12	4	167±13	0.47±0.16	not affected	
CC(C)NCC(O)c1ccc(O)c(O)c1 (stereo not shown) [isoproterenol, Isoproterenol, reference compound]							4.23±3.01
